The record followed here is the Deep4Chem optical property database.

The data set can be described thus: photoluminescence quantum yield (fraction); solvent given as SMILES.

Under “in ClC(Cl)Cl”, `COc1ccc(-c2nc(-c3ccc(C)cc3)c3ccccn23)cc1` displayed a photoluminescence quantum yield of 0.13.
Turning to `c1ccc(C2CCN3COc4c5ccccc5c5c6c7c(c2c3c46)C(c2ccccc2)CCN7CO5)cc1` (stereo unspecified), the photoluminescence quantum yield is, setting by setting: (in C1CCCCC1) 0.715; (in C1CCOC1) 0.124; (in C1COCCO1) 0.183; (in CC#N) 0.025; (in CC(C)=O) 0.046; (in CCOC(C)=O) 0.108. Also, the photoluminescence quantum yield is 0.227 (in CCOCC); 0.039 (in CN(C)C=O); 0.023 (in CO); 0.026 (in CS(C)=O); 0.871 (in Cc1ccccc1); 0.053 (in ClC(Cl)Cl). In addition, under “in ClCCl”, the photoluminescence quantum yield was 0.066.
`CC(C)[Si]1(C(C)C)c2ccccc2-c2ccc(N(C)C)cc21`: the photoluminescence quantum yield is, setting by setting: (in C1CCCCC1) 0.26; (in CC#N) 0.28; (in CCO) 0.11; (in CCOCC) 0.22; (in CS(C)=O) 0.12; (in ClCCl) 0.13. This molecule returned a photoluminescence quantum yield (in c1ccccc1) of 0.22.
`Oc1ccc2ccc(C3(O)C4CC5CC(C4)CC3C5)cc2c1` (stereo unspecified) gave a photoluminescence quantum yield (in CC#N) of 0.3.
As for `COc1ccc2c(c1)c1ccccc1n2-c1nc2ccccc2nc1-n1c2ccccc2c2cc(OC)ccc21`, the photoluminescence quantum yield (in Cc1ccccc1) turned out to be 0.13.
The molecule `COc1ccc(-c2cc3c(cc2OC)-c2c(c4c(c5c2-c2cc(OC)c(-c6ccc(OC)cc6)cc2C5)C(=O)N(CCC(C)C)C4=O)C3)cc1` registered a photoluminescence quantum yield (in C1CCOC1) of 0.59.
Take `Cc1ccc(N2C(c3ccccc3N(C)C)=NC(c3ccccc3)C2c2ccccc2)cc1` (stereo unspecified): for the setting “in Cc1ccccc1”, the photoluminescence quantum yield amounted to 0.275.
As for `CC(C)[Si](C#Cc1c2ccccc2c(C#C[Si](C(C)C)(C(C)C)C(C)C)c2nc3c(ccc4cc5ccccc5cc43)nc12)(C(C)C)C(C)C`, the photoluminescence quantum yield (in CCCCCC) is 0.12.
Take `Cc1nc2cc3c4c(cccc4c2o1)C(=O)OC3=O`: the photoluminescence quantum yield (in CCO) worked out at 0.1.
Consider `CCCCCCCCCCCCC(CCCCCCCCCC)Cn1c2cc(/C=C/C=C(C#N)C#N)c3cccc4c5cccc6c(/C=C/C=C(C#N)C#N)cc1c(c65)c2c34` (stereo unspecified), for which the photoluminescence quantum yield came out at 0.044 (in C1CCCCC1), 0.061 (in CC#N), 0.073 (in Cc1ccccc1) and 0.067 (in ClCCl).
On to `O=Cc1ccc(-c2ccc(-c3nc4ccccc4s3)c(O)c2)s1`, for which the photoluminescence quantum yield was 0.0424 (in CCO), 0.0634 (in ClCCl) and 0.07 (in O).
On to `Fc1ccc(-c2cc3c4c(c2)CCc2cc(-c5ccc(F)cc5)cc(c2-4)CC3)cc1`, for which the photoluminescence quantum yield is, setting by setting: (in C1CCCCC1) 0.48; (in C1CCOC1) 0.81; (in CC#N) 0.19; (in CCCCCC) 0.55; (in CCO) 0.18; (in CN(C)C=O) 0.56. The photoluminescence quantum yield was determined as 0.24 (in CO), 1 (in Cc1ccccc1), 0.55 (in ClC(Cl)Cl) and 1 (in ClCCl).
With `CC/[NH+]=c1\cc2oc3cc(NC)c(C)cc3c(-c3ccccc3C(=O)OCC)c-2cc1C`, the photoluminescence quantum yield was found to be 0.94 (in CCO) and 0.95 (in O).
For the setting “in C1CCCCC1”, `C[Si](C)(C)C#Cc1ccc2c3cccc4cccc(c5cccc1c52)c43` registered a photoluminescence quantum yield of 0.88.
Consider `C(=C\c1ncc2ccccc2n1)/c1ccc(N(c2ccccc2)c2ccccc2)cc1`, for which the photoluminescence quantum yield (in ClCCl) amounted to 0.61.
Consider `CCC1(CC)c2cc(C=C(C#N)C#N)ccc2-c2ccc(N(C)C)cc21`, for which the photoluminescence quantum yield stood at 0.04 (in C1CCCCC1); 0.26 (in CC#N); 0.18 (in CCO); 0.39 (in CCOCC); 0.24 (in CS(C)=O); 0.62 (in ClCCl). The molecule further registered a photoluminescence quantum yield (in c1ccccc1) of 0.22.
With `CCCCN(CCCC)c1ccc(C#Cc2cc(C#Cc3ccc(C(F)(F)F)cc3)c(C#Cc3ccc(C(F)(F)F)cc3)cc2C#Cc2ccc(N(CCCC)CCCC)cc2)cc1`, under “in ClCCl”, the photoluminescence quantum yield came out at 0.44.
On the same count and under the same terms, as for `C[Si]1(C)c2cc(C#Cc3ccccc3)ccc2C=Cc2ccc(C#Cc3ccccc3)cc21`, the figure is 0.77.
In turn, `O=S(=O)(c1ccccc1)c1ccc(-n2c3ccccc3c3c2c2ccccc2n3-c2ccccc2)cc1` returned a photoluminescence quantum yield (in Cc1ccccc1) of 0.195.
Molecule `COc1ccccc1CC(=O)OCc1c(C)c(=O)n2c(=O)c(C)c(C)n12` gave a photoluminescence quantum yield (in CCO) of 0.636.
In the case of `O=P1(c2ccccc2)C(c2cccs2)=Cc2ccccc21` (stereo unspecified), the photoluminescence quantum yield (in C1CCOC1) is 0.23.
Regarding `Cc1cc2c(o1)=CC1=Cc3cc4oc(C)cc4n3[B-](F)(F)[N+]=21`, the photoluminescence quantum yield runs as follows: (in C1CCOC1) 0.93; (in CC#N) 0.95; (in CCO) 0.97; (in CO) 0.96; (in Cc1ccccc1) 0.94; (in ClC(Cl)Cl) 0.96.
For the setting “in ClCCl”, `COc1ccc(-c2ccc(C(=O)NC(C)(C)C)c3c2ccc2c4ccccc4c4ccccc4c23)cc1` showed a photoluminescence quantum yield of 0.21.
Still for that read-out and setting: the result for `CCc1ccc(C2=[N+]3C(=Cc4c5ccc(OC)cc5c(-c5ccc(CC)s5)n4[B-]3(F)F)c3ccc(OC)cc32)s1` reads 0.2.
Consider `CC(C)(C)c1cc(C(C)(C)C)c2oc3c(c2c1)C=CN1C(=O)C2=C4c5oc6c(C(C)(C)C)cc(C(C)(C)C)cc6c5C=CN4C(=O)C2=C31`, for which the photoluminescence quantum yield reads like this: (in CN(C)C=O) 0.6; (in ClC(Cl)Cl) 0.99.
With `CCCCCCCCCCN1C(=O)c2cc(NCCCOCCO)c3c4c(cc(NCCCOCCO)c(c24)C1=O)C(=O)N(CCCCCCCCCC)C3=O`, the photoluminescence quantum yield runs as follows: (in CO) 0.43; (in ClC(Cl)Cl) 0.58.
As to `F[B-]1(F)OC(c2ccccc2)=C(c2ccccc2)c2oc3ccccc3[n+]21`, where the note is “in C1CCOC1”, the photoluminescence quantum yield came out at 0.013.
Regarding `Cc1ccc(C2=C3C=CC=[N+]3[B-](F)(F)n3cccc32)cc1`, the photoluminescence quantum yield (in C1CCCCC1) came to 0.036; the photoluminescence quantum yield (in CC#N) turned out to be 0.018; the photoluminescence quantum yield (in CCO) stood at 0.025; the photoluminescence quantum yield (in CCOC(C)=O) amounted to 0.024; the photoluminescence quantum yield (in CO) turned out to be 0.018; the photoluminescence quantum yield (in OCC(F)(F)F) was 0.031.
Where the note is “in CCO”, `CN1C(=CC=Cc2nc3nc4ccccc4nc3s2)C(C)(C)c2ccccc21` registered a photoluminescence quantum yield of 0.75.
`CCCCCCN(CCCCCC)c1ccc(C#Cc2ccc(N(CCCCCC)CCCCCC)cc2)cc1` showed a photoluminescence quantum yield (in CO) of 0.0001.
For the setting “in ClC(Cl)Cl”, `O=Cc1ccc(Oc2ccc3c4c(cccc24)C(=O)N(CCO)C3=O)cc1` displayed a photoluminescence quantum yield of 0.19.
In the case of `c1cc2ccc3cc4cccc5ccc6cc(c1)c2c3c6c54`, the photoluminescence quantum yield by setting is: (in C1CCCCC1) 0.31; (in CC#N) 0.32; (in CO) 0.38; (in Cc1ccccc1) 0.47; (in ClCCl) 0.24.
Where the note is “in C1CCOC1”, `c1ccc2c(c1)-c1ccccc1C21c2ccccc2-c2oc3c(c21)C1(c2ccccc2-c2ccccc21)c1ccccc1-3` showed a photoluminescence quantum yield of 0.39.
As for `CC1(C)C(/C=C/C=C/C=C/C=C2/N(S(=O)(=O)[O-])c3ccc(S(=O)(=O)[O-])cc3C2(C)C)=[N+](S(=O)(=O)[O-])c2ccc(S(=O)(=O)[O-])cc21`, the photoluminescence quantum yield reads like this: (in CO) 0.55; (in O) 0.29.
With `O=c1cc2cc(O)c3cccc4ccc(o1)c2c43`, the photoluminescence quantum yield (in CC1CCCO1) turned out to be 0.35.
Where the note is “in Cc1ccccc1”, `Cc1cc(C)c(B(c2ccc(N3c4ccccc4C(C)(C)c4ccccc43)cc2)c2c(C)cc(C)cc2C)c(C)c1` came in with a photoluminescence quantum yield of 0.89.
On the same count and under the same terms, the result for `c1ccc(N2c3ccc4ccccc4c3-c3c4ccccc4cc[n+]3[B-]2(c2ccccc2)c2ccccc2)cc1` reads 0.17.
The molecule `N#CC1=CC(C=O)=CC(C#N)=P1(c1ccccc1)c1ccccc1` registered a photoluminescence quantum yield (in ClC(Cl)Cl) of 0.72.
`COC(=O)CNC(=O)c1nc2c(N(C)C)nc(N(C)C)nc2n1Cc1ccccc1` came in with a photoluminescence quantum yield (in C1COCCO1) of 0.95, a photoluminescence quantum yield (in CC#N) of 0.95, a photoluminescence quantum yield (in CO) of 0.9 and a photoluminescence quantum yield (in ClCCl) of 0.91.
As for `C1=C2C3=C(C4=[N+]2[B-]2(Oc5ccccc54)Oc4ccccc4-c4c5c(c1n42)C1CCC5CC1)C1CCC3CC1` (stereo unspecified), where the note is “in ClCCl”, the photoluminescence quantum yield was determined as 0.99.
Regarding `Cc1ccc2nnn(-c3c(C#N)c4c(N)ncnc4n3[C@H]3C[C@H](O)[C@@H](CO)O3)c2c1`, under “in CO”, the photoluminescence quantum yield was determined as 0.007.
With `Cc1cc2c3ccccc3sc2c2[nH]c3ccccc3c12`, where the note is “in ClCCl”, the photoluminescence quantum yield worked out at 0.058.
Consider `c1ccc(B2Nc3cc4c(cc3-c3occc32)NB(c2ccccc2)c2ccoc2-4)cc1`, for which, under “in ClCCl”, the photoluminescence quantum yield was determined as 0.26.
Turning to `CCCCCCCC[n+]1ccc(-c2cc[n+](CCCCCCCC)cc2)cc1`, where the note is “in CC#N”, the photoluminescence quantum yield is 0.009.
`CCN(CC)c1ccc2c(c1)oc(=O)c1c(C)nc3c(c(-c4ccccc4)nn3-c3ccccc3)c12`: the photoluminescence quantum yield was found to be 0.635 (in C1CCCCC1); 0.634 (in CCOC(C)=O); 0.51 (in CN(C)C=O); 0.396 (in CO); 0.653 (in ClCCl).
For `Cc1cc(C)c([B-]2(c3c(C)cc(C)cc3C)[O+]=P(c3ccccc3)(c3ccccc3)c3ccsc3-c3sccc32)c(C)c1`, under “in C1CCOC1”, the photoluminescence quantum yield amounted to 0.23.
For `CCn1c2ccccc2c2cc(-c3cc(-c4ccc5c(c4)c4ccccc4n5CC)nc(OC)n3)ccc21`, the photoluminescence quantum yield reads like this: (in C1CCOC1) 0.48; (in CCOC(C)=O) 0.76; (in CN(C)C=O) 0.69; (in Cc1ccccc1) 0.68; (in ClCCl) 0.69.
For the molecule `Cc1cc(=O)oc2cc3c4ccc(C(C)(C)C)cc4c4cc(C(C)(C)C)ccc4c3cc12`, the photoluminescence quantum yield (in ClC(Cl)Cl) is 0.14.
Regarding `COC(=O)c1ccc(/C=C2\N=C(c3ccccc3)NC2=O)cc1`, the photoluminescence quantum yield (in C1COCCO1) is 0.159.
